Among the test systems are MDA-N; DLD-1 colon; KM20L2 colon; RXF-631 renal; XF 498 CNS; HOP-18 NSCLC; SNB-78 CNS; LXFL 529 NSCLC; DMS 114 small cell lung.
What all share (assay): NCI anticancer screen, dose series, 48 h

38 compounds from PubChem BioAssay (NCI) can be followed below.

Several values for one entry are separate records, joined by “and”; a condition that tells them apart may be missing. Identical values can stand only once.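 Assay format: 96-well plates, 48-hour exposure. GI50: concentration for 50% inhibition of growth. TGI is the concentration that stops growth completely.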

On to `N#CCCN(CCCN(CCCN(C(=O)Nc1ccccc1)c1ccccc1)C(=O)Nc1ccccc1)C(=O)Nc1ccccc1`, for which, in the assay with MDA-N, the GI50 was more than 100 µM and the TGI is more than 100 µM.

Compound `CC(=O)C(=Cc1ccc(C=C(C(C)=O)C(C)=O)cc1)C(C)=O` displayed a TGI in the assay on MDA-N of 5.94 µM.

Turning to `CCN(CC)CCOc1ccc(CCc2cc(OC)c(OC)c(OC)c2)cc1`, the TGI in the assay with DLD-1 colon was more than 100 µM; in the assay with KM20L2 colon, more than 100 µM; in the assay with RXF-631 renal, more than 100 µM; in the assay on XF 498 CNS, 57.7 µM; with HOP-18 NSCLC it was more than 100 µM; in the assay with SNB-78 CNS, more than 100 µM. Further, the values for the TGI in the assay with LXFL 529 NSCLC and in the assay on DMS 114 small cell lung were more than 100 µM and 73.8 µM, respectively.

Turning to `C[C@]12CCC(=O)C=C1CC[C@@H]1C2CC[C@]2(C)Nc3c(cnn3-c3ccccc3)CC12` (stereo partly specified), the TGI in the assay with DLD-1 colon, in the assay on KM20L2 colon, in the assay with RXF-631 renal, in the assay on XF 498 CNS, in the assay on SNB-78 CNS and with LXFL 529 NSCLC was more than 100 µM each time. For the same compound, the TGI in the assay with DMS 114 small cell lung was more than 100 µM.

For the compound `CC(C)CCCC(C)[C@H]1CCC2[C@@H]3CCC4Nc5nocc5C[C@]4(C)C3CC[C@@]21C` (stereo partly specified), the TGI with DLD-1 colon came out at 41 µM; in the assay with KM20L2 colon it was 41.7 µM; with HOP-18 NSCLC it was 34.7 µM; with SNB-78 CNS, 42.1 µM; in the assay on LXFL 529 NSCLC, 27.3 µM.

Turning to `O=C1C2C3C=C4c5ccccc5N(c5ccccc5)C4(C2C(=O)N1c1ccc(Cl)cc1)[C@H]1C(=O)N(c2ccc(Cl)cc2)C(=O)[C@@H]31` (stereo partly specified), the TGI with DLD-1 colon, with KM20L2 colon, in the assay with RXF-631 renal, with XF 498 CNS, with HOP-18 NSCLC and with SNB-78 CNS was more than 100 µM each time. Further, the TGI in the assay on LXFL 529 NSCLC and with DMS 114 small cell lung was more than 100 µM throughout.

In the case of `Cc1ccc(SSc2ccc(C)cc2C(=O)O)c(C(=O)O)c1`, the TGI in the assay with DLD-1 colon, in the assay with KM20L2 colon, with RXF-631 renal, in the assay with SNB-78 CNS and in the assay with LXFL 529 NSCLC was more than 100 µM throughout.

`Cc1cc(NCCCCCCNc2cc(C)nc3cc(N(C)C)ccc23)c2ccc(N(C)C)cc2n1`: the TGI in the assay with DLD-1 colon is more than 100 µM; in the assay with RXF-631 renal, more than 100 µM; with XF 498 CNS it was 59 µM.

For `C1=CC=C2NCCCCCCCNC3=CC=CC=CC3=NCCCCCCCN=C2C=C1`, the TGI is more than 100 µM in the assay with DLD-1 colon; more than 100 µM with KM20L2 colon; 25.7 µM in the assay with RXF-631 renal; more than 100 µM with XF 498 CNS; more than 100 µM in the assay with LXFL 529 NSCLC.

Turning to `c1ccc(CN2CCC3(CC2)SSC2(CCN(Cc4ccccc4)CC2)S3)cc1`, the TGI with MDA-N was more than 100 µM.

As to `O=C1NC2(CCCCCC2)C2CCCCCCC12O` (stereo unspecified), the TGI in the assay with DLD-1 colon, in the assay with XF 498 CNS, in the assay on HOP-18 NSCLC, with SNB-78 CNS, with LXFL 529 NSCLC and with DMS 114 small cell lung was more than 100 µM throughout.

Regarding `OCC(O)C(Cl)CCl` (stereo unspecified), the TGI in the assay with MDA-N was more than 100 µM.

In the assay on MDA-N, `CC1CC2OC(=O)C(C)C2CC2(C)C(OC3OC(CO)C(O)C(O)C3O)OCCC12` (stereo unspecified) showed a TGI of more than 100 µM.

As for `CC1OC(OC2C[C@](O)(C(=O)CF)Cc3c(O)c4c(c(O)c32)C(=O)c2ccccc2C4=O)CC(N)C1O` (stereo partly specified), the TGI stood at 0.333 µM in the assay with DLD-1 colon; 0.353 µM with KM20L2 colon; 0.389 µM in the assay with XF 498 CNS; 0.333 µM in the assay on MDA-N; 3.53 µM in the assay on SNB-78 CNS; 1.27 µM in the assay with LXFL 529 NSCLC. In the assay on DMS 114 small cell lung, this compound displayed a TGI of 0.142 µM.

With `COc1ccc2c(c1)[n+]([O-])c(-c1ccc(OC)c(OC)c1)c(N)[n+]2[O-]`, the TGI in the assay on DLD-1 colon, in the assay on KM20L2 colon, in the assay on XF 498 CNS, with HOP-18 NSCLC, with SNB-78 CNS and in the assay on LXFL 529 NSCLC was more than 100 µM in each case. In the assay with DMS 114 small cell lung, the TGI was more than 100 µM.

Regarding `O=c1cc(-c2ccccc2F)[nH]c2ccc(N3CCCC3)cc12`, in the assay on MDA-N, the GI50 is less than 0.001 µM.

In the case of `c1ccc(C(c2ccccc2)c2cccnc2)cc1`, the TGI in the assay on DLD-1 colon, in the assay on KM20L2 colon, in the assay on RXF-631 renal, in the assay with HOP-18 NSCLC, in the assay on SNB-78 CNS and in the assay on DMS 114 small cell lung was more than 100 µM throughout.

`COc1cc2ccccc2oc1=O` came in with a TGI in the assay with MDA-N of more than 100 µM.

Consider `COc1c(O)cc2oc(-c3ccc(O)cc3)cc(=O)c2c1O`, for which the TGI in the assay with MDA-N is more than 100 µM.

On to `CC(=O)NNc1nc(C)c(C(=O)/C=C/c2ccccc2Cl)s1`, for which the TGI in the assay on DLD-1 colon, in the assay on KM20L2 colon, in the assay on RXF-631 renal, in the assay on HOP-18 NSCLC, with SNB-78 CNS and in the assay on DMS 114 small cell lung was more than 100 µM throughout.

`COC1/C=C/C(C)C(C(C)C(OC)C(C)CCC(=O)C(C)C(C/C=C/N(C)C=O)OC)OC(=O)/C=C/C=C(\C)CC(OC)CC2=CC(=O)O[C@H](C2)C(C)C(OC)CC(OC)/C=C/C(C)C(OC)C1` (stereo partly specified): in the assay with MDA-N, the GI50 is 0.0472 µM and the TGI stood at 1.11 µM.

For `O=C(O/C(=C(/N=Nc1ccccc1)c1ccccc1)c1ccccc1)c1ccccc1`, the TGI in the assay with DLD-1 colon, in the assay with KM20L2 colon, in the assay on RXF-631 renal, in the assay on XF 498 CNS, in the assay on HOP-18 NSCLC and with SNB-78 CNS was more than 100 µM each time. The TGI with LXFL 529 NSCLC and in the assay on DMS 114 small cell lung was more than 100 µM each time.

Take `O=c1[nH]nc2ccccc2c1Cc1ccccc1`: the TGI in the assay on DLD-1 colon, with KM20L2 colon, in the assay with XF 498 CNS, in the assay with HOP-18 NSCLC, with SNB-78 CNS and in the assay on DMS 114 small cell lung was more than 100 µM in each case.

As to `N.N.N.N.N.[Cl-].[Co+3].c1ccc(-c2nn[n-]n2)cc1`, the GI50 is more than 100 µM in the assay with DLD-1 colon; more than 100 µM with KM20L2 colon; 93.1 µM with HOP-18 NSCLC; more than 100 µM with SNB-78 CNS; more than 100 µM with LXFL 529 NSCLC. The TGI with DLD-1 colon, in the assay with KM20L2 colon, in the assay on HOP-18 NSCLC, in the assay on SNB-78 CNS and in the assay on LXFL 529 NSCLC was more than 100 µM each time.

The compound `O=C(O)c1cc2ccc3ccccc3c2oc1=O` registered a TGI in the assay on MDA-N of more than 100 µM.

For the compound `O=C(CC(=O)C1=CNc2ccccc2S1)C(=O)Nc1ccc(Cl)cc1`, the TGI with DLD-1 colon, in the assay on KM20L2 colon, in the assay with RXF-631 renal, with XF 498 CNS, with SNB-78 CNS and in the assay on LXFL 529 NSCLC was more than 50 µM each time. Further, in the assay with DMS 114 small cell lung, the TGI was more than 50 µM.

In the assay with MDA-N, `O=[N+]([O-])c1ccc2c(c1)Cc1cc(N=Cc3ccc4c(c3)OCO4)ccc1-2` yielded a TGI of more than 100 µM.

For the compound `Clc1ccc(N=Nc2nc3ccccc3nc2N=Nc2ccc(Cl)cc2Cl)c(Cl)c1`, the TGI in the assay with DLD-1 colon, in the assay with KM20L2 colon, in the assay with XF 498 CNS, in the assay on SNB-78 CNS, in the assay on LXFL 529 NSCLC and with DMS 114 small cell lung was more than 100 µM each time.

Take `O=C1Nc2nc3ccccc3n2N=C2CCCC12` (stereo unspecified): the TGI with DLD-1 colon, in the assay on KM20L2 colon, in the assay on RXF-631 renal, in the assay with XF 498 CNS, in the assay with SNB-78 CNS and in the assay on LXFL 529 NSCLC was more than 100 µM each time. The TGI in the assay with DMS 114 small cell lung is more than 100 µM.

Regarding `COCC(O)Cn1ccnc1[N+](=O)[O-]` (stereo unspecified), the TGI in the assay with KM20L2 colon, with XF 498 CNS, in the assay on SNB-78 CNS and in the assay with DMS 114 small cell lung was more than 100 µM throughout.

For the compound `CCOC1=C2C(=O)OC(=O)C2C2CCCCC2=C1` (stereo unspecified), the TGI in the assay with DLD-1 colon, with XF 498 CNS, in the assay with SNB-78 CNS, in the assay on LXFL 529 NSCLC and with DMS 114 small cell lung was more than 100 µM each time.

As to `COc1cccc2c1C(=O)c1c(O)c3c(c(O)c1C2=O)CC(O)(C(O)CO)CC3OC1CC(N2CCOCC2)C(O)C(C)O1` (stereo unspecified), the TGI in the assay on KM20L2 colon was 0.0943 µM; with XF 498 CNS, 0.0478 µM; in the assay on HOP-18 NSCLC it was 0.00797 µM; in the assay with MDA-N it was 0.1 µM; in the assay on SNB-78 CNS it was 0.0323 µM and 0.188 µM; in the assay on LXFL 529 NSCLC it was 0.0553 µM. The GI50 in the assay with SNB-78 CNS and in the assay on DMS 114 small cell lung was less than 0.001 µM in each case.

On to `C1COCCN1.C1COCCN1.NC1CCCCC1N.[Cl-].[Pt+2]` (stereo unspecified), for which the GI50 with DLD-1 colon, with KM20L2 colon, in the assay with HOP-18 NSCLC, in the assay on SNB-78 CNS and with LXFL 529 NSCLC was more than 100 µM in each case. For the same compound, the TGI with DLD-1 colon, in the assay on KM20L2 colon, with HOP-18 NSCLC, with SNB-78 CNS and in the assay with LXFL 529 NSCLC was more than 100 µM in each case.

The compound `COc1ccc(C2CC(C)(O)Oc3cc4c(cc32)OCO4)cc1` (stereo unspecified) showed a TGI in the assay with MDA-N of 36.4 µM.

As for `Cc1oc2c(C)c3oc(=O)cc(C)c3cc2c1CN1C(=O)C2OCCOCCOCCOCCOCCO[C@H]2C1=O` (stereo partly specified), the TGI in the assay on DLD-1 colon is more than 100 µM; in the assay with KM20L2 colon, more than 100 µM; in the assay on RXF-631 renal, 74.2 µM; in the assay with HOP-18 NSCLC, more than 100 µM; in the assay with SNB-78 CNS it was more than 100 µM; with LXFL 529 NSCLC, more than 100 µM. In the assay with DMS 114 small cell lung, this compound displayed a TGI of more than 100 µM.

With `Cc1cc2c(C)nn(Cc3ccccc3)c2c(C(N)=O)c1C`, the TGI with DLD-1 colon, in the assay with KM20L2 colon, in the assay on XF 498 CNS, in the assay with SNB-78 CNS, in the assay with LXFL 529 NSCLC and in the assay on DMS 114 small cell lung was more than 100 µM in each case.

Regarding `COc1cc(NC(C)CCCN)c2ncccc2c1` (stereo unspecified), the TGI is more than 100 µM in the assay on DLD-1 colon; more than 100 µM with KM20L2 colon; more than 100 µM in the assay on RXF-631 renal; 73.2 µM with XF 498 CNS; more than 100 µM in the assay with HOP-18 NSCLC; more than 82.1 µM in the assay on MDA-N. Further, the TGI in the assay on SNB-78 CNS was more than 100 µM; in the assay on LXFL 529 NSCLC it was more than 100 µM; in the assay on DMS 114 small cell lung, more than 89 µM.

In the case of `OCC1C(/C=C/c2ccoc2)ON2CCCC12` (stereo unspecified), the TGI with DLD-1 colon was more than 100 µM; in the assay with KM20L2 colon, more than 100 µM; in the assay on XF 498 CNS, more than 100 µM; with HOP-18 NSCLC it was 86 µM; in the assay with SNB-78 CNS, more than 100 µM; in the assay on LXFL 529 NSCLC it was more than 100 µM.
